The text below walks through data of patent publication US20060241067A1, “Methods For inhibiting angiogenesis, cell migration, cell adhesion, and cell survival” (priority 2002, published 2006).

This experiment relates to HUVECS. Nature of the experiment: Time lapse videomicroscopy of migrating endothelial cells. In kind it is cell-based, human. Particulars: 500 μM dibutyryl-cAMP, vitronectin. As to the method: 2.5-cm-diameter glass coverslips were coated with 5 μg/ml vitronectin for 1 hour at 37° C., then blocked with 3% bovine serum albumin for 2 hours. HUVECs were removed from culture dishes by trypsizination, and plated on coverslips for 48 hours. Coverslips were then placed on the microscope stage (Zeiss, Oberkochen, Germany) connected to a Charged Coupled Device (CCD) camera and viewed at a 200× magnification in bright field. Cells on the coverslips were kept at 37° C. with 5% CO2, bathed in culture media with 20 mM HEPES (pH7.4). Images were recorded using IP Lab software (Webster, N.Y.) at 1-minute intervals for 60 minutes. Dibutyryl-cAMP was then directly added into the culture medium at concentration of 500 μM. Images of cells were then recorded for an additional 60 minutes at 1-minute intervals. Cell shape and migration distance changes were quantified using IMAQ Vision Builder software (National Instruments Corporation, Austin, Tex.). Cell shape and nuclear positions were measured at 10-minute time points. Ellipse Ratio was used as a parameter for polarity. As cell shape approaches a circle, the Ellipse Ratio approaches the number one. Distance migrated was determined by measuring the distance nuclei moved in ten minute intervals. […] Images were recorded using IP Lab Spectrum software (Webster, N.Y.) at 1-minute intervals for 60 minutes. […]

Structures are written as SMILES.

As for `CCCC(=O)Nc1ncnc2c1ncn2[C@@H]1O[C@@H]2COP(=O)(O)O[C@H]2[C@H]1OC(=O)CCC` [dibutyryl cAMP], the “cell shape (polarity)” value is listed as “rapidly induces a flattening of the cell shape” and the “endothelial cell migration (distance moved by nuclei)” value is listed as “rapidly inhibits endothelial cell migration”.
